Values quoted from earlier work, collected in patent US8530500B2, “Stable pharmaceutical omeprazole formulation for oral administration” (Vetegen, LLC, priority 2009, dated 2013).
≈ marks a conversion by molar mass, not a printed value.

Key:
[1] = not given; remark: listed apart in the source

## COc1ccc2[nH]c([S+]([O-])Cc3ncc(C)c(OC)c3C)nc2c1 (stereo not shown) [omeprazole]
DMSO
  solubility in dimethyl sulfoxide (DMSO): > 19 mg/mL
Polyethylene Glycol 400
  solubility in Polyethylene Glycol 400: 20 mg/mL (≈ 57.9 mM)
ethanol
  solubility in ethanol: 4.5 mg/mL (≈ 13 mM)
water
  solubility in water: 0.5 mg/mL (≈ 1.45 mM)
[1]; neutral pH
  half-life at neutral pH: about 14 hours
[1]; pH above 7, protected from light and extremes in temperature and humidity
  stability at pH levels above 7: very stable
[1]; water, ethanol or acidic environments
  stability in water, ethanol or acidic environments: not very stable
